Test results taken from patent publication US6900198B2, “Synthetic catalytic free radical scavengers useful as antioxidants for prevention and therapy of disease” (Eukarion, Inc., priority 1995, dated 2005).

Columns and labels:
[1] = Peroxidase activity toward t-BHP, ABTS oxidation; type: biochemical; conditions: 1 mM t-BHP versus same concentration of H2O2
Procedure: (§1) Peroxidase activity was assayed by monitoring the hydrogen peroxide-dependent oxidation of 2,2′-azino-bis(3-ethylbenzthiazoline-6) sulfonic acid (ABTS) spectrophotometrically. Standard assay mixtures consisted of 50 mM sodium phosphate, pH 8.1, 0.9% sodium chloride, 0.5 mM ABTS, and H2O2 and salen manganese complex as indicated. Where indicated, 50 mM sodium phosphate buffers of pH 6.0 or pH 7.1 were substituted. Assays were conducted at 27±0.2° C. ABTS oxidation was monitored at 740 or 500 nm to eliminate interference by the salen manganese complexes, many of which absorb in the vicinity of the λmax of oxidized ABTS, and to avoid absorbance values that exceeded the linear range of the spectrophotometer. The amount of oxidized ABTS was estimated using an Δε740 of 20,300 M^−1cm^−1 or an Δε500 of 3400 M^−1cm^−1 calculated based upon the published molar extinction coefficient oat 405 nm (36,800).
(In comparison, horseradish peroxidase utilized t-BHP with an ABTS oxidation rate that was about 5.4% of the rate with H2O2).

[2] = Peroxidase activity, H2O2-dependent oxidation of ABTS; type: biochemical; conditions: for peroxidase activity (relative, in words): 10 μM salen manganese complex, 0.2 mM H2O2
Procedure: as §1
Compounds were assayed for SOD as described under Experimental procedures, using cytochrome C as acceptor. The concentration of each compound showing half-maximal activity in this assay is presented. Catalase and peroxidase activities were conducted as described under Experimental Procedures, with 10 μM salen manganese complex. The H2O2 concentration was 10 mM and 0.2 mM in the catalase and peroxidase assays, respectively. Where denoted, “nd” means that the assay was not performed on this compound.
Catalase and peroxidase activities were assayed as described in Example 2. Catalase assays contained 10 μM salen-manganese complex and 10 mM hydrogen peroxide. Peroxidase assays contained 10 μM salen-manganese complex and 0.2 mM hydrogen peroxide. Glucose-glucose oxidase toxicity assays were performed using human dermal fibroblasts as described in Example 2.

[3] = Catalase activity, polarographic oxygen electrode; type: biochemical; conditions: 10 μM salen manganese complex, 10 mM H2O2
Procedure: Catalase activity was assayed by monitoring the conversion of H2O2 to oxygen using a Clark-type polarographic oxygen electrode. The apparatus consisted of a Mini Clark Style electrode, a 600 μl Oxygen Uptake Chamber, and a Chemical Microsensor system, all obtained from Diamond General Corporation (Ann Arbor, Mich.). The electrode was calibrated by immersion in nitrogen- or air-equilibrated buffers using a Dual Chamber Calibration Cell (Diamond General, Corp.). Catalase reaction mixtures consisted of 50 mM sodium phosphate, pH 8.1,0.9% sodium chloride, and salen manganese complex and H2O2 at the indicated concentrations. The temperature of the water-jacketed reaction chamber, as well as the calibration buffers, was maintained at 25±0.1° C. Data were collected at 1 sec intervals and stored on a MacIntosh II computer using data acquisition hardware and software by Strawberry Tree, Inc. (Sunnyvale, Calif.). Dissolved oxygen concentrations were calculated as described previously (Del Rio et al. (1977) Anal. Biochem. 80: 409) based on a value of 2.5×10^−4 M oxygen for air-saturated buffer at 25° C. Linearity of the dissolved oxygen measurements within the experimental range was continued by determining the amount of oxygen generated from known quantities of H2O2 during exhaustive treatment with bovine liver catalase. Stock solutions of H2O2 were prepared by diluting a commercial 30% H2O2 solution in water and the H2O2 concentrations in these stocks were determined by absorbance at 240 nm, using a molar extinction coefficient of 44 (Stadtman, E R. et al. (1990) Proc. Natl. Acad. Sci. USA 87: 384). […] In the absence of salen manganese complex, H2O2 alone typically produced an early, relatively slow increase in signal. The slope of this increased signal was not proportional to H2O2 concentration (for example in one experiment, 1 and 10 Mm H2O2 yielded apparent rates of 12 and 14 μM oxygen per min, respectively) and may be due to an electrode artifact. […] Where presented, initial rates were calculated by determining the slope of the linear portion of time dependent plots of oxygen generation, usually comprising the first five seconds of the reaction. Unless otherwise indicated, these were corrected by subtracting the rate obtained with H2O2 alone. Where presented, endpoint oxygen generated was calculated from time-dependent plots, such as those shown in FIG. 14, as the difference between the baseline oxygen concentration immediately prior to-substrate addition and the maximal oxygen concentration achieved during the course of the reaction. All reactions subjected to these calculations were run for a sufficient time to ensure that oxygen generation had ceased.
Compounds were assayed for SOD as described under Experimental procedures, using cytochrome C as acceptor. […]

Hippocampal slices = assay: Anoxia in hippocampal slices, EPSP recovery; type: cell-based, Sprague-Dawley rats; conditions: C7 50 μM
Excerpt: Anoxia in hippocampal slices. […] A glass recording micropipet was positioned in CA1 stratum radiatum to record excitatory postsynaptic potential (EPSPs) generated by electrical stimulation of the Schaffer-commissural pathway by a bipolar stimulation electrode at a frequency of 0.033 Hz. During anoxic episodes, the oxygen supply was replaced with 100% N2 gas. N2 was supplied for 90 seconds following electrical silence after which O2 was reintroduced. Recovery of EPSPs (both slope and amplitude) was recorded for 50 minutes, at which time the final viability of the slices was determined, with viability being defined as the ability of the slice to generate a 3 mV EPSP.

[4] = test system: Human dermal fibroblasts (HF cells); assay: Protection against t-butyl hydroperoxide toxicity in human fibroblasts (XTT); type: cell-based; conditions: 80 μM with 0.5 mM t-BHP
Procedure: (§2) Human dermal fibroblasts (HF cells) were obtained from the American type tissue Culture Collection at passage 1 and cultured and propagated in a medium (HF medium) consisting of Dulbecco's Modified Eagle's Medium with 4.5 g/l D-glucose, 10% calf serum 4 mM glutamine, 50 units/ml penicillin, and 50 μg/ml streptomycin in a 37° C. humidified incubator equilibrated with 5% CO2. Cells were used at passages 5 or 6 for experiments. For cell protection assays, HF cells were seeded at a density of about 15,000 cells per cm2 onto 96-well culture plates and allowed to grow to confluence. […] After 2 hr., the absorbance at 490 nm was measured in a BioRad (Richmond, Calif.) Model 3550 plate-reader, using a reference wavelength of 655 nm. […] Absorbance measurements for blank wells, containing HF medium and XTT reagent but no cells, were also determined. […] Fresh HF medium was then added and cell viability assessed using the XTT reagent as described above. […]
Cell protection assays were performed as described under Experimental Procedures with salen-manganese complexes administered at the indicated concentrations and t-BHP at 0.5 mM. Cell viability was assessed using the XTT reagent as described and is expressed as the absorbance at 490 nm uncorrected for blank. […]

[5] = test system: Human dermal fibroblasts (HF cells); assay: Protection against glucose and glucose oxidase toxicity in human fibroblasts (XTT); type: cell-based; conditions: glucose oxidase 0.019 units/ml
Procedure: Cytotoxicity studies were performed as described under Experimental procedures. Absorbance values, corrected by subtracting the blank signal of 0.17 OD units, are the means±sd of triplicate samples. Control cells (open circle) received no glucose oxidase. Catalase-treated (solid circle) cells received glucose oxidase (0.019) units/ml) as well as bovine liver catalase (290 units/ml). Other samples received the same dose of glucose oxidase and the indicated concentrations of salen manganese complex.
as §2, with “experiments.” for “experiments. For cell protection assays, HF cells were seeded at a density of about 15,000 cells per cm2 onto 96-well culture plates and allowed to grow to confluence.”

Row | Molecule | peroxidase activity (relative, in words) [2] | catalase activity, initial rate (relative, in words) [3] | protection against glucose and glucose oxidase (overall, in words) [5] | other results
1 | horseradish peroxidase |  |  |  | ABTS oxidation rate with t-BHP as percent of the rate with H2O2 [1]: about 5.4%
2 | COc1cccc2c1[O][Mn]([O]C(C)=O)[O]c1c(cccc1OC)C=NCCCN=C2 [Compound C51] | reduced catalase and peroxidase activities | reduced catalase and peroxidase activities |  | 
3 | Purified bovine SOD: purified bovine superoxide dismutase |  |  |  | protection against anoxia-induced decrease in synaptic response in CA1 (EPSP slope and amplitude) (Hippocampal slices): no protection
4 | CC(=O)[O][Mn]1[O]c2ccccc2C=NCCN=Cc2ccccc2[O]1 [Compound C31] |  |  | about equally as effective as C7 | reduced viability at 80 μM relative to 40 μM together with t-BHP [4]: possible synergistic toxicity with t-BHP
5 | COc1cccc2c1[O][Mn]([O]C(C)=O)[O]c1c(cccc1OC)C=NCCN=C2 [Compound C32] | fastest peroxidases | about twice as fast as C7 | more protective than C43 | catalase endpoint: total oxygen generated / turnovers completed before the reaction ceased (relative, in words) [3]: almost twice the amount of oxygen as C7; catalase turnovers before the reaction ceased [3]: about 16 turnovers
6 | bovine liver catalase: bovine liver catalase enzyme used as reference (protein, UniProt P00432 2-527, looked up) Catalase: ADNRDPASDQMKHWKEQRAAQKPDVLTTGGGNPVGDKLNSLTVGPRGPLLVQDVVFTDEMAHFDRERIPERVVHAKGAGAFGYFEVTHDITRYSKAKVFEHIGKRTPIAVRFSTVAGESGSADTVRDPRGFAVKFYTEDGNWDLVGNNTPIFFIRDALLFPSFIHSQKRNPQTHLKDPDMVWDFWSLRPESLHQVSFLFSDRGIPDGHRHMNGYGSHTFKLVNANGEAVYCKFHYKTDQGIKNLSVEDAARLAHEDPDYGLRDLFNAIATGNYPSWTLYIQVMTFSEAEIFPFNPFDLTKVWPHGDYPLIPVGKLVLNRNPVNYFAEVEQLAFDPSNMPPGIEPSPDKMLQGRLFAYPDTHRHRLGPNYLQIPVNCPYRARVANYQRDGPMCMMDNQGGAPNYYPNSFSAPEHQPSALEHRTHFSGDVQRFNSANDDNVTQVRTFYLKVLNEEQRKRLCENIAGHLKDAQLFIQKKAVKNFSDVHPEYGSRIQALLDKYNEEKPKNAVHTYVQHGSHLSAREKANL |  |  |  | reduction of the initial rate of ABTS oxidation by C7 ([2]; 29 units/ml bovine liver catalase added, 10 mM H2O2): 55%
